# Molecular target: T1, Recombinant human cathepsin A (Homo sapiens, UniProt P10619)
# T1 construct: Recombinant human cathepsin A (residues 29-480, with a C-terminal 10-His tag); 10-His (C); purchased R&D Systems 1049-SE
# T1 sequence (P10619 29-326 limits assumed): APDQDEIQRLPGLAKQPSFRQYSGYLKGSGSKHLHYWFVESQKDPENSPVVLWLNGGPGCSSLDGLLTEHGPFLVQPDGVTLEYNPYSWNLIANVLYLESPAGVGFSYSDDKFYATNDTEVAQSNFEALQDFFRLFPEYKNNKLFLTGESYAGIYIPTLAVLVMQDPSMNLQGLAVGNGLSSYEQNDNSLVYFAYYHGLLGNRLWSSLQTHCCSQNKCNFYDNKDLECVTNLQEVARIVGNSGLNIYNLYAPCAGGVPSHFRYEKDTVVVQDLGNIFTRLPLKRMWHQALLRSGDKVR
# T1 sequence (P10619 327-480 limits assumed): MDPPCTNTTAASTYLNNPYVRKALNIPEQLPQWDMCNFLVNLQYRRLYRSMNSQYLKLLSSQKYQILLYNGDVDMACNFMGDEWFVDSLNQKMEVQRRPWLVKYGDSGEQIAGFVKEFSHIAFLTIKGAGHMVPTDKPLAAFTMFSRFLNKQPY
# Assay: Cathepsin A inhibitory activity
# Format: biochemical
# Conditions: activated recombinant human cathepsin A 833 ng/ml, Bodipy FL-labeled bradykinin substrate 2 μM, pH 5.5, room temperature
# Method: a) Cathepsin A Inhibitory Activity
# Recombinant human cathepsin A (residues 29-480, with a C-terminal 10-His tag; R&D Systems, #1049-SE) was proteolytically activated with recombinant human cathepsin L (R&D Systems, #952-CY). Briefly, cathepsin A was incubated at 10 μg/ml with cathepsin L at 1 μg/ml in activation buffer (25 mM 2-(morpholin-4-yl)-ethanesulfonic acid (MES), pH 6.0, containing 5 mM dithiothreitol (DTT)) for 15 min at 37° C. Cathepsin L activity was then stopped by the addition of the cysteine protease inhibitor E-64 (N-(trans-epoxysuccinyl)-L-leucine-4-guanidinobutylamide; Sigma-Aldrich, # E3132; dissolved in activation buffer/DMSO) to a final concentration of 10 μM.
# The activated cathepsin A was diluted in assay buffer (25 mM MES, pH 5.5, containing 5 mM DTT) and mixed with the test compound (dissolved in assay buffer containing (v/v) 3% DMSO) or, in the control experiments, with the vehicle in a multiple assay plate. After incubation for 15 min at room temperature, as substrate then bradykinin carrying an N-terminal ®Bodipy FL (4,4-difluoro-5,7-dimethyl-4-bora-3a,4a-diaza-s-indacene-3-propionyl) label (JPT Peptide Technologies GmbH; dissolved in assay buffer) was added to the mixture. The final concentration of cathepsin A was 833 ng/ml and the final concentration of labeled bradykinin 2 μM. After incubation for 15 min at room temperature the reaction was stopped by the addition of stop buffer (130 mM 2-(4-(2-hydroxy-ethyl)-piperazin-1-yl)-ethanesulfonic acid, pH 7.4, containing (v/v) 0.013% ®Triton X-100, 0.13% Coating Reagent 3 (Caliper Life Sciences), 6.5% DMSO and 20 μM ebelactone B (Sigma, # E0886)).
# Uncleaved substrate and product were then separated by a microfluidic capillary electrophoresis on a LabChip® 3000 Drug Discovery System (12-Sipper-Chip; Caliper Life Sciences) and quantified by determination of the respective peak areas. Substrate turnover was calculated by dividing product peak area by the sum of substrate and product peak areas, and the enzyme activity and the inhibitory effect of the test compound thus quantified. From the percentage of inhibition of cathepsin A activity observed with the test compound at several concentrations, the inhibitory concentration IC50, i.e. the concentration which effects 50% inhibition of enzyme activity was, calculated.
row,SMILES,IC50
1,"COc1ccc([C@H](CC(=O)O)NC(=O)c2csc(-c3ccccc3)n2)cc1 [Example 59, (S)-3-(4-Methoxy-phenyl)-3-[(2-phenyl-thiazole-4-carbonyl)-amino]-propionic acid]",976 nM
2,"Cc1ccc(-c2nc(C)c(C(=O)N[C@@H](CC(=O)O)c3ccccc3C)s2)cc1 [Example 70, (S)-3-[(4-Methyl-2-p-tolyl-thiazole-5-carbonyl)-amino]-3-o-tolyl-propionic acid]",> 10000 nM
3,"Cc1ccccc1[C@H](CC(=O)O)NC(=O)c1csc(-c2ccncc2)n1 [Example 7, (S)-3-[(2-Pyridin-4-yl-thiazole-4-carbonyl)-amino]-3-o-tolyl-propionic acid]",805 nM
4,"Cc1cc(C(F)(F)F)n(-c2nc(C(=O)N[C@@H](CC(=O)O)c3ccccc3C)cs2)n1 [Example 9, (S)-3-{[2-(3-Methyl-5-trifluoromethyl-pyrazol-1-yl)-thiazole-4-carbonyl]-amino}-3-o-tolyl-propionic acid]",3590 nM
5,"O=C(O)CC(NC(=O)c1csc(-c2ccccc2F)n1)C1CCCCC1 (stereo not shown) [Example 131, 3-Cyclohexyl-3-{[2-(2-fluoro-phenyl)-thiazole-4-carbonyl]-amino}-propionic acid]",1430 nM
6,"O=C(O)C[C@H](NC(=O)c1nc(-c2ccccc2)cs1)c1ccc(Cl)cc1Cl [Example 96, (S)-3-(2,4-Dichloro-phenyl)-3-[(4-phenyl-thiazole-2-carbonyl)-amino]-propionic acid]",254 nM
7,"O=C(O)CC(NC(=O)c1csc(-c2ccccc2)n1)c1ccc(-c2ccc(F)cc2)cc1 (stereo not shown) [Example 2, 3-(4′-Fluoro-biphenyl-4-yl)-3-[(2-phenyl-thiazole-4-carbonyl)-amino]-propionic acid]",> 10000 nM
8,"O=C(O)C[C@H](NC(=O)c1csc(-c2ccccc2)n1)c1cccc(Cl)c1 [Example 40, (S)-3-(3-Chloro-phenyl)-3-[(2-phenyl-thiazole-4-carbonyl)-amino]-propionic acid]",821 nM

# The next lines start with the values.
row,IC50,SMILES
1,38 nM,"O=C(O)C[C@H](NC(=O)c1nc(-c2ccccc2)cs1)c1cccc(Cl)c1Cl [Example 95, (S)-3-(2,3-Dichloro-phenyl)-3-[(4-phenyl-thiazole-2-carbonyl)-amino]-propionic acid]"
2,878 nM,"COc1cccc([C@H](CC(=O)O)NC(=O)c2csc(-c3ccccc3F)n2)c1 [Example 85, (S)-3-{[2-(2-Fluoro-phenyl)-thiazole-4-carbonyl]-amino}-3-(3-methoxy-phenyl)-propionic acid]"
3,1910 nM,"O=C(O)C[C@H](NC(=O)c1csc(-c2cccc(Cl)c2)n1)c1ccc(Cl)cc1Cl [Example 91, (S)-3-{[2-(3-Chloro-phenyl)-thiazole-4-carbonyl]-amino}-3-(2,4-dichloro-phenyl)-propionic acid]"
4,3110 nM,"O=C(O)C[C@H](NC(=O)c1csc(-c2ccc(C(F)(F)F)cc2)n1)c1ccccc1Cl [Example 33, (S)-3-(2-Chloro-phenyl)-3-{[2-(4-trifluoromethyl-phenyl)-thiazole-4-carbonyl]-amino}-propionic acid]"
5,242 nM,"COc1cccc([C@H](CC(=O)O)NC(=O)c2csc(-c3ccccc3C)n2)c1OC [Example 17, (S)-3-(2,3-Dimethoxy-phenyl)-3-[(2-o-tolyl-thiazole-4-carbonyl)-amino]-propionic acid]"
6,619 nM,"O=C(O)C[C@H](NC(=O)c1csc(-c2cccc(Cl)c2Cl)n1)c1ccccc1C(F)(F)F [Example 66, (S)-3-{[2-(2,3-Dichloro-phenyl)-thiazole-4-carbonyl]-amino}-3-(2-trifluoromethyl-phenyl)-propionic acid]"
7,377 nM,"O=C(O)C[C@H](NC(=O)c1csc(-c2ccccc2F)n1)c1ccccc1Cl [Example 30, (S)-3-(2-Chloro-phenyl)-3-{[2-(2-fluoro-phenyl)-thiazole-4-carbonyl]-amino}-propionic acid]"
8,176 nM,"O=C(O)C[C@H](NC(=O)c1csc(-c2ccccc2)n1)c1cccc(Cl)c1Cl [Example 13, (S)-3-(2,3-Dichloro-phenyl)-3-[(2-phenyl-thiazole-4-carbonyl)-amino]-propionic acid]"
